Experimental data from patent US7468391B2, “Methods for treating retinoid responsive disorders using selective inhibitors of CYP26A and CYP26B” (Allergan, Inc., priority 2003, dated 2008).
Values joined by “and” are separate entries in the source; they are usually repeats but may differ in a detail not shown here. Equal entries are not always repeated. “Also recorded” adds a separate entry of the source. Where two headings read alike, the source gives them in different places. Each block holds one compound with its values, some of them ahead of it.

What was measured:
[1] = format: in vivo
Procedure: (§1) For the hamster model system, male golden syrian hamsters were fed LabDiet#5002 rodent diet and housed individually on a 14/10 hr light/dark cycle. For treatment, the animals were randomized according to body weight and they were also weighed at each treatment so that the drug doses could be adjusted accordingly. The animals were treated daily by oral gavage, 6 days/week for 4 weeks. At the end of treatments, the animals were sacrificed by carbon dioxide inhalation. The flank organs were then excised and spread on a small piece of index card which was placed in a histology cassette for fixation in 10% buffered formaldehyde. The specimen was divided into 5 equally spaced portions to make paraffin blocks and one 5-micrometer H&E sections was prepared from each block. The two sections that contained the most sebaceous glands were used to determine the average acini area of the flank organ. A video camera attached to a standard microscope with the 4× objective was used to capture the images of the sebaceous glands. Computer programs Videoshop and NIH Image 1.63 were used to quantify the acini areas. All the recognizable sebaceous glands in the two sections were analyzed and the means were derived for comparison among various treatments. In all studies, blood samples were also collected for determining the levels of serum triglyceride using a triglyceride GPO Trinder kit from Sigma Chemicals (St. Louis, Mo.).
Experimental results showing the effect of various retinoid compounds on differentiation of sebaceous gland in […] flank organ were generated.

[2] = system: hamster flank organ sebaceous gland; assay: Hamster flank organ sebaceous gland differentiation (model for acne); format: in vivo, male golden syrian hamsters; conditions: for sebaceous gland differentiation in hamster flank organ: oral gavage, 6 days/week for 4 weeks
Procedure: Differentiation of hamster flank organ sebaceous gland is a model system for development of acne. To determine the effectiveness of selective CYP26B inhibitors for treating acne, such inhibitors were tested in this model system. To confirm that this model system can predict the effectiveness of a compound in reducing acne, 13-cis retinoic acid (acutane) was used as a positive control.
as §1

hacyp26b = assay: Taqman RT-PCR of CYP26B expression in hamster flank organ sebaceous gland; format: in vivo
Procedure: (§2) Because CYP26 functions in cells to reduce retinoic acid receptor signaling, the effect of inhibiting CYP26 to increase retinoic acid receptor signaling, and thereby reduce differentiation of hamster sebaceous gland differentiation, was examined. The expression of CYP26A and CYP26B in hamster flank organ sebaceous gland was determined using Taqman RT-PCR. Hamsters were treated as described above and sacrificed at various time points (1 day to 3 weeks). The flank organs were excised and placed under a dissecting microscope. Sebaceous glands were removed and put into liquid nitrogen immediately. RNAs were isolated from the glands using Trizol reagents (Invitrogen; San Diego, Calif.) as described by the manufacturer. The RNAs were treated with DNase to remove contaminating genomic DNAs and further purified with the DNA-free kit (Ambion; Austin, Tex.). Quantitative RT-PCR was performed on an ABI 7700 machine using Invitrogen's Platinum qRT-PCR kit with CYP26-specific primers and probes.

hacyp26a = assay: Taqman RT-PCR of CYP26A expression in hamster flank organ sebaceous gland; format: in vivo
Procedure: as §2

RAR γ [3] = molecular target: T1, RAR γ (Homo sapiens, UniProt P13631); assay: RAR γ EC50/(efficacy); format: cell-based
T1 sequence (P13631 1-454): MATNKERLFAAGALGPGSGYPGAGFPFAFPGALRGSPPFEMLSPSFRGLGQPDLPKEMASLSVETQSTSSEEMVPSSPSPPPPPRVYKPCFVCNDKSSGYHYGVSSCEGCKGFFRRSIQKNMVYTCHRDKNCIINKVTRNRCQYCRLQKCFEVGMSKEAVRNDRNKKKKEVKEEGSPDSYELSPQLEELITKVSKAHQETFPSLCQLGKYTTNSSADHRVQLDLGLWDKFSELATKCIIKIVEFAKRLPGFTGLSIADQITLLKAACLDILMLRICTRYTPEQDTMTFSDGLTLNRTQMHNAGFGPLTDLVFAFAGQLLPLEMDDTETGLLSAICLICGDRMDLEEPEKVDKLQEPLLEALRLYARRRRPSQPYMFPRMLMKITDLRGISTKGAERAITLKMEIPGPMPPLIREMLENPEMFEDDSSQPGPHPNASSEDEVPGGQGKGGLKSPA

CYP26A (P450RAI-1) = molecular target: T2, CYP26A (P450RAI-1) (Homo sapiens, UniProt O43174); assay: Cell-based inhibition of RA metabolism in CYP26A stably transfected HeLa cells; conditions: stably transfected HeLa cells, [3H]-RA, 3 hours at 37° C.; read-out: P450RAI-1 Whole cell IC50
T2 construct: expressed in transfected cells; host or cells: HeLa
T2 sequence (O43174 1-497): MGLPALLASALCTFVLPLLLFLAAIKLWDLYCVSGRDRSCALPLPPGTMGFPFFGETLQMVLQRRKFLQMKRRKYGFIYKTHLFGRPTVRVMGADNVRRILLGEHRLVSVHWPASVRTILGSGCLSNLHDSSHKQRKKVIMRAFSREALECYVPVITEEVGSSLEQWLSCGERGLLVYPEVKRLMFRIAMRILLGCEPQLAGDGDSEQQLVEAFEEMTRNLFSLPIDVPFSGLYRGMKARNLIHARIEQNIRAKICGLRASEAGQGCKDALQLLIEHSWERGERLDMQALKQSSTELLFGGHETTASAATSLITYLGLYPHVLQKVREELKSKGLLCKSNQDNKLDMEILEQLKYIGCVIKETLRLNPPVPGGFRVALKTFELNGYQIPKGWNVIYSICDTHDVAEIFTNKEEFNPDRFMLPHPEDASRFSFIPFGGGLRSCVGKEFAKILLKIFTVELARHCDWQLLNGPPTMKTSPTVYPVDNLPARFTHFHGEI
Method in brief: (§3)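 Stably transfected HeLa cells (5×10^5/well) in MEM with 10% FBS and 0.05 μCi [3H]-RA, compounds at 10, 1 or 0.1 μM final, 3 h at 37° C. Retinoids extracted by modified Bligh-Dyer (methylene chloride); aqueous radioactivity counted; ID50 for 50% inhibition of RA metabolism derived from log-transformed data.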

RAR β [4] = molecular target: T3, RAR β (Homo sapiens, UniProt P10826); assay: RAR β EC50/(efficacy); format: cell-based
T3 sequence (P10826 1-455): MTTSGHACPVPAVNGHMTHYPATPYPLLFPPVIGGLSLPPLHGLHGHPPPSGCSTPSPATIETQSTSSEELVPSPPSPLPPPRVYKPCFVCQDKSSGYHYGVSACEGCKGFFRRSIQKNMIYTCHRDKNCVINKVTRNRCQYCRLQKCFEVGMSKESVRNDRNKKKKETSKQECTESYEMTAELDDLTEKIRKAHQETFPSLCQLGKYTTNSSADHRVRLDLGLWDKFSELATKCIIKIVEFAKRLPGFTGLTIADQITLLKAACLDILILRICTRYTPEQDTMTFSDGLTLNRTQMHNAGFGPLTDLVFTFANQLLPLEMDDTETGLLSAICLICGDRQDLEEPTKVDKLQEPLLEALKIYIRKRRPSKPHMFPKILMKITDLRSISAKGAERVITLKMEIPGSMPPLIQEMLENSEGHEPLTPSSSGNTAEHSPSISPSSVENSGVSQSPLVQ

RAR α [5] = molecular target: T4, RAR α (Homo sapiens, UniProt P10276); assay: RAR α EC50/(efficacy); format: cell-based; conditions: value in brackets of cell EC50/(EFFICACY)/Kd
T4 sequence (P10276 1-462): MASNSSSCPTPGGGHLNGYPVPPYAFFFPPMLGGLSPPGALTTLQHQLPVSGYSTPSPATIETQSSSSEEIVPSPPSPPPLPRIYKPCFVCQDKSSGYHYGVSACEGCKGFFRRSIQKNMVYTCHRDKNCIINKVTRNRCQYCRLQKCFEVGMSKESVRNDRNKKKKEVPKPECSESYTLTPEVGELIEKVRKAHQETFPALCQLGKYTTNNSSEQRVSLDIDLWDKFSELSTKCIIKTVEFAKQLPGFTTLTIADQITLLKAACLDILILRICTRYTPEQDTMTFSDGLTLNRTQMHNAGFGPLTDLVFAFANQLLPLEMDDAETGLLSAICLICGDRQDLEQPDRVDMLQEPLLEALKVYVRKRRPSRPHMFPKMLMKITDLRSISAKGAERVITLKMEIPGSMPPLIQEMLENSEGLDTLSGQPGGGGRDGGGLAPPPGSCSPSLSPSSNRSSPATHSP

RAR β [6] = molecular target: T3, RAR β; assay: RAR β Kd; format: binding; conditions: last item of cell EC50/(EFFICACY)/Kd
CYP26B (P450RAI-2) = molecular target: T5, CYP26B (P450RAI-2) (Homo sapiens, UniProt Q9NR63); assay: Cell-based inhibition of RA metabolism in CYP26B stably transfected HeLa cells; conditions: stably transfected HeLa cells, [3H]-RA, 3 hours at 37° C.; read-out: P450RAI-2 Whole cell IC50
T5 construct: expressed in transfected cells; host or cells: HeLa
T5 sequence (Q9NR63 1-512): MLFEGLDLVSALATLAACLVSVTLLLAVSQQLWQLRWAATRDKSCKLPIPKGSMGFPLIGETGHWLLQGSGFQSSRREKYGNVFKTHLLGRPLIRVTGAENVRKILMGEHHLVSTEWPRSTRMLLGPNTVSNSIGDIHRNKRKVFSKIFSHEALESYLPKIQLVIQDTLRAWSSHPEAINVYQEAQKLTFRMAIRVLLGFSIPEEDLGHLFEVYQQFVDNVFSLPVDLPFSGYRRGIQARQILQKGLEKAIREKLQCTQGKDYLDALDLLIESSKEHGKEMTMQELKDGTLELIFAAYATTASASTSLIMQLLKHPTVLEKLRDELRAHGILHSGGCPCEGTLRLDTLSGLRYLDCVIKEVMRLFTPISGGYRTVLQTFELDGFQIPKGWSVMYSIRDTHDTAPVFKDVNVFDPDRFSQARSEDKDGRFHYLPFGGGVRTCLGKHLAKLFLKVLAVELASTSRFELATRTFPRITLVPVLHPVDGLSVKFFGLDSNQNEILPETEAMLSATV
Method in brief: as §3

RAR α [7] = molecular target: T4, RAR α; assay: RAR α Kd; format: binding; conditions: last item of cell EC50/(EFFICACY)/Kd
RAR γ [8] = molecular target: T1, RAR γ; assay: RAR γ Kd; format: binding; conditions: last item of cell EC50/(EFFICACY)/Kd
human patients = conditions: Kuijpers, et al. (1998); cited from earlier work
[9] = first item of cell EC50/(EFFICACY)/Kd
[10] = value in brackets of cell EC50/(EFFICACY)/Kd

Structure (SMILES): CC1=C(/C=C/C(C)=C\C=C\C(C)=C/C(=O)O)C(C)(C)CCC1=O [4-oxo-13-cis RA]
toxicity ([1]; hamster flank organ study): lower toxicity levels | sebaceous gland differentiation in hamster flank organ [2]: appeared to be more effective

Structure (SMILES): CC1=C(/C=C/C(C)=C/C=C/C(C)=C\C(=O)O)C(C)(C)CCC1 [13-cis retinoic acid]
toxicity ([1]; hamster, in vivo): lower toxicity levels | hacyp26b Ct (hacyp26b; HFO-9, 1w, listed as 13cisRA): 30.5 and 31.8 | hacyp26b Ct (hacyp26b; HFO-9, 2w): 34.1 | hacyp26b Relative to veh (hacyp26b; HFO-9, 2w): 0.6× | hacyp26b Ct (hacyp26b; HFO-9, 3w, listed as 13cisRA): 36.7 and 35.7 | hacyp26b Relative to veh (hacyp26b; HFO-9, 3w, listed as 13cisRA): 0.1× and 0.2× | hacyp26b Ct (hacyp26b; HFO-9, 4d): 30.6 | hacyp26b Relative to veh (hacyp26b; HFO-9, 4d): 13× | CYP26B expression in hamster flank sebaceous gland (hacyp26b; Table 2): induced | sebaceous gland differentiation in hamster flank organ [2]: effective in reducing sebaceous gland differentiation; also recorded: appeared to be more effective | hacyp26a Ct (hacyp26a; HFO-9, 1w, listed as 13cisRA): 29.8 and 29.6 | hacyp26a Relative to Veh (hacyp26a; HFO-9, 1w, listed as 13cisRA): 12.1× and 13.9× | hacyp26a Ct (hacyp26a; HFO-9, 2w): 30.1 | hacyp26a Relative to Veh (hacyp26a; HFO-9, 2w): 9.8× | hacyp26a Ct (hacyp26a; HFO-9, 3w, listed as 13cisRA): 33 and 31.9 | hacyp26a Ct (hacyp26a; HFO-9, 4d): 28.1 | hacyp26a Relative to Veh (hacyp26a; HFO-9, 4d): 22.6× | CYP26A expression in hamster flank sebaceous gland (hacyp26a; Table 2): induced

Structure (SMILES): CCc1ccc(C2=CC(C)(C)Sc3ccc(C#Cc4ccc(C(=O)O)cc4)cc32)cc1 [AGN194310]
effect on the 13-cis retinoic acid-induced reduction in sebaceous gland differentiation ([2]; given with 13-cis retinoic acid, FIG. 2): blocked the effect of 13-cis retinoic acid treatment on sebaceous gland differentiation

EC50 (RAR γ [3]; [9]): 125 nM | RAR γ (EFFICACY) (RAR γ [3]; [10]): 66 | IC50 (CYP26A (P450RAI-1)): 100 nM | EC50 (RAR β [4]; [9]): 38 nM | RAR β (EFFICACY) (RAR β [4]; [10]): 59 | RAR α (EFFICACY) (RAR α [5]): 10 | Kd (RAR β [6]): 4470 nM | IC50 (CYP26B (P450RAI-2)): 8800 nM | Kd (RAR α [7]): 2240 nM | Kd (RAR γ [8]): 1950 nM
Structure (SMILES): C#CCc1c(C)c(C#Cc2ccc(CC(=O)O)cc2)cc(C(C)(C)C)c1OC(C)C [Compound 47, [4-(5-tert-Butyl-4-isopropoxy-2-methyl-3-prop-2-ynyl-phenylethynyl)-phenyl]-acetic acid]

Structure (SMILES): C/C(=C\c1ccc(C(=O)O)cc1)c1ccc2c(c1)C(C)(C)CCC2(C)C [TTNPB]
toxicity ([1]; hamster, in vivo): observed at effective doses

Structure (SMILES): Clc1cccc(C(c2ccc3[nH]cnc3c2)n2ccnc2)c1 (stereo not drawn) [liarozole]
effect of treatment in human patients (human patients): amelioration of psoriasis
